# Assay results reported in ChEMBL document CHEMBL1955741, “Identification of fused bicyclic heterocycles as potent and selective 5-HT(2A) receptor antagonists for the treatment of insomnia” (Bioorg Med Chem Lett, 2012).
# Calls of active or inactive are those of the source. No cut-off for these calls is given here.
# Columns and labels:
# Rattus norvegicus [1] = assay: Inhibition of DOI-induced hypolocomotion in rat at 3 mg/kg coadministered with DOI 10 mins prior testing; type: functional, organism-based; parameters: dose 3 mg/kg
# [2] = Half life in po dosed rat; type: ADME, organism-based; conditions: in vivo
# Rattus norvegicus [3] = assay: Total clearance in iv dosed rat; type: ADME, organism-based; conditions: in vivo
# Rattus norvegicus [4] = assay: Oral bioavailability in rat; type: ADME, organism-based; conditions: in vivo
# [5] = Plasma concentration in rat at 3 mg/kg after 0.75 hrs; type: ADME, organism-based; parameters: dose 3 mg/kg
# Rattus norvegicus [6] = assay: Volume of distribution at steady state in […] rat; type: ADME, organism-based; conditions: in vivo
# [7] = target: 5-hydroxytryptamine receptor 2A (Homo sapiens, UniProt P28223)
# Description: Displacement of [125I]-DOI from recombinant human 5HT2A receptor
# [8] = target: T1, 5-hydroxytryptamine receptor 2C (Homo sapiens, UniProt P28335)
# T1 sequence (P28335 whole entry): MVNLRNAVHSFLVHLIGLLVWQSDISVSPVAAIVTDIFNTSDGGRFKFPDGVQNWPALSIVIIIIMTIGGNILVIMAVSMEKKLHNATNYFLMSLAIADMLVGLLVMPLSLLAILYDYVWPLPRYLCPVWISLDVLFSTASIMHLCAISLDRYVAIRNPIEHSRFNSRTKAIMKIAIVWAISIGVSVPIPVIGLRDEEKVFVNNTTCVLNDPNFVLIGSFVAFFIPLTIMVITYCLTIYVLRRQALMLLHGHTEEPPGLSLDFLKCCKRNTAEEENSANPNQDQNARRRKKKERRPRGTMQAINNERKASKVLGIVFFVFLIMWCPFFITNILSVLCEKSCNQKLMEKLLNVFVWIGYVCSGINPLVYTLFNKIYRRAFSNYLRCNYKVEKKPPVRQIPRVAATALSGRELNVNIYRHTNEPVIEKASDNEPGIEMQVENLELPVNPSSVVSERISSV
# Canis familiaris [9] = assay: Toxicity in telemetered dog model assessed as change in hemodynamic measures upto 30 mg/kg; type: organism-based, Canis lupus familiaris; parameters: dose 30 mg/kg; conditions: in vivo
# Rattus norvegicus [10] = assay: Antiinsomnia activity in rat assessed as increase in delta power at 0.1 mg/kg, po after 1 hr; type: functional, organism-based; parameters: dose 0.1 mg/kg
# [11] = Half life in rat liver microsomes; type: ADME, Microsome
# Rattus norvegicus [12] = assay: Antiinsomnia activity in po dosed rat assessed as increase in non-rapid eye movement bout duration after 5 hrs; type: functional, organism-based
# [13] = Drug uptake in rat brain at 0.3 mg/kg after 0.75 hrs; type: ADME, organism-based; parameters: dose 0.3 mg/kg; conditions: read-out: Drug uptake
# Rattus norvegicus [14] = assay: Antiinsomnia activity in rat assessed as increase in delta power at 0.1 mg/kg, po after 3 to 4 hrs; type: functional, organism-based; parameters: dose 0.1 mg/kg
# Cytochrome P450 2C9 = Cytochrome P450 2C9 (Homo sapiens, UniProt P11712); assay: Inhibition of CYP2C9 in human liver microsomes; type: ADME, Microsome
# Rattus norvegicus [15] = assay: Inhibition of DOI-induced hypolocomotion in rat drug coadministered with DOI 10 mins prior testing; type: functional
# Cytochrome P450 1A2 = target: T2, Cytochrome P450 1A2 (Homo sapiens, UniProt P05177); assay: Inhibition of CYP1A2 in human liver microsomes; type: ADME, Microsome
# T2 sequence (P05177 whole entry): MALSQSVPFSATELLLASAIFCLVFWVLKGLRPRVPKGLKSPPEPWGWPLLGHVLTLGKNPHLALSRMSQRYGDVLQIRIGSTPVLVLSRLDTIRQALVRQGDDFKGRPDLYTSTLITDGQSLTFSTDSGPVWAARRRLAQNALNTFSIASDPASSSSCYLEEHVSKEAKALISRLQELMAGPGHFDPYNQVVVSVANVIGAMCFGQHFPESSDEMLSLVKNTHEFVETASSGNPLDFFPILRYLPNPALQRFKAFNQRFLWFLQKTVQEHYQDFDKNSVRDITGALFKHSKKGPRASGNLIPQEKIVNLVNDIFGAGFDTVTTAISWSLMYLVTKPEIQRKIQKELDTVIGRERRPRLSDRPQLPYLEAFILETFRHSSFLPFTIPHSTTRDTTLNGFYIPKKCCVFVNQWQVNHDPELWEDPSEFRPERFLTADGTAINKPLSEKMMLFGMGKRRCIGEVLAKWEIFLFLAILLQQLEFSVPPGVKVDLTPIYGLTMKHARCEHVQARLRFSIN
# [16] = target: D(1B) dopamine receptor (Homo sapiens) (UniProt P21918); assay: Binding affinity to dopamine receptor D5 at 10 uM
# Rattus norvegicus [17] = assay: Antiinsomnia activity in po dosed rat assessed as decrease in non-rapid eye movement bout number after 5 hrs; type: functional, organism-based
# Cytochrome P450 2D6 = Cytochrome P450 2D6 (Homo sapiens, UniProt P10635); assay: Inhibition of CYP2D6 in human liver microsomes; type: ADME, Microsome
# Rattus norvegicus [18] = assay: Antiinsomnia activity in po dosed rat assessed as increase in sleep consolidation after 5 hrs; type: functional, organism-based
# Rattus norvegicus [19] = assay: AUClast in rat at 3 mg/kg, po; type: ADME, organism-based, Plasma; parameters: time 0 - last, dose 3 mg/kg, route oral; conditions: in vivo
# [20] = target: D(2) dopamine receptor (Homo sapiens) (UniProt P14416); assay: Binding affinity to dopamine receptor D2 at 10 uM
# [21] = target: D(3) dopamine receptor (Homo sapiens) (UniProt P35462); assay: Binding affinity to dopamine receptor D3 at 10 uM
# [22] = Cmax in rat at 3 mg/kg, po; type: ADME, organism-based; parameters: dose 3 mg/kg, route oral; conditions: in vivo
# [23] = target: T3, Alpha-2A adrenergic receptor (Homo sapiens) (UniProt P08913); assay: Binding affinity to adrenergic alpha 2 receptor at 10 uM
# T3 sequence (whole entry): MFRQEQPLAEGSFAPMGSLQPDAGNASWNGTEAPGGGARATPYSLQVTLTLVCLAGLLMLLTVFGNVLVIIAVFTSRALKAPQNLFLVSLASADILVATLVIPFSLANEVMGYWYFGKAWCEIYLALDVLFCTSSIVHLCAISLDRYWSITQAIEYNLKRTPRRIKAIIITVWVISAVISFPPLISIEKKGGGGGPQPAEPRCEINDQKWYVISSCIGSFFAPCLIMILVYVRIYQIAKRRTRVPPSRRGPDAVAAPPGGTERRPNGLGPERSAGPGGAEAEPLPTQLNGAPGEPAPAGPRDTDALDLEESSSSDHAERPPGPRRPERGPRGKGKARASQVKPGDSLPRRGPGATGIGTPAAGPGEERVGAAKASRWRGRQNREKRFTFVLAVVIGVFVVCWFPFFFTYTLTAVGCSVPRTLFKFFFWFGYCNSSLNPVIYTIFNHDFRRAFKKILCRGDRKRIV
# [24] = target: D(1A) dopamine receptor (Homo sapiens) (UniProt P21728); assay: Binding affinity to dopamine receptor D1 at 10 uM
# [25] = Ratio of drug level in brain to plasma in rat at 0.3 mg/kg; type: ADME, organism-based; parameters: dose 0.3 mg/kg; conditions: read-out: BPR
# Cytochrome P450 3A4 = Cytochrome P450 3A4 (Homo sapiens, UniProt P08684); assay: Inhibition of CYP3A4 in human liver microsomes; type: ADME, Microsome
# [26] = Plasma protein binding in human; type: ADME, cell-free; conditions: read-out: PPB (converted)
# [27] = Plasma concentration in rat at 0.3 mg/kg after 0.75 hrs; type: ADME, organism-based; parameters: dose 0.3 mg/kg
# [28] = target: T4, D(4) dopamine receptor (Homo sapiens) (UniProt P21917); assay: Binding affinity to dopamine receptor D4 at 10 uM
# T4 sequence (whole entry): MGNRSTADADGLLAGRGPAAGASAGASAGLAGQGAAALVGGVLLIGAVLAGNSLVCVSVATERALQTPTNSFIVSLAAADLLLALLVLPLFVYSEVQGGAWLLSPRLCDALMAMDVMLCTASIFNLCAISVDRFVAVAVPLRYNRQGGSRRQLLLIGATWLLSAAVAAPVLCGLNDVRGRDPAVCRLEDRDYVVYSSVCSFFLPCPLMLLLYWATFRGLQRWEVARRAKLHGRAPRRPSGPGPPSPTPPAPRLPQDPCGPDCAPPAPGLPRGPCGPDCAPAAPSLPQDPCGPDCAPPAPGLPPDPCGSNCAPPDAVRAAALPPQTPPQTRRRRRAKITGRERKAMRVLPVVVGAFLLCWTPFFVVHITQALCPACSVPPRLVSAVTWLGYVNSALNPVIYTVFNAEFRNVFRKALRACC
# [29] = target: T5, Alpha-1A adrenergic receptor (Homo sapiens) (UniProt P35348); assay: Binding affinity to adrenergic alpha 1 receptor at 10 uM
# T5 sequence (whole entry): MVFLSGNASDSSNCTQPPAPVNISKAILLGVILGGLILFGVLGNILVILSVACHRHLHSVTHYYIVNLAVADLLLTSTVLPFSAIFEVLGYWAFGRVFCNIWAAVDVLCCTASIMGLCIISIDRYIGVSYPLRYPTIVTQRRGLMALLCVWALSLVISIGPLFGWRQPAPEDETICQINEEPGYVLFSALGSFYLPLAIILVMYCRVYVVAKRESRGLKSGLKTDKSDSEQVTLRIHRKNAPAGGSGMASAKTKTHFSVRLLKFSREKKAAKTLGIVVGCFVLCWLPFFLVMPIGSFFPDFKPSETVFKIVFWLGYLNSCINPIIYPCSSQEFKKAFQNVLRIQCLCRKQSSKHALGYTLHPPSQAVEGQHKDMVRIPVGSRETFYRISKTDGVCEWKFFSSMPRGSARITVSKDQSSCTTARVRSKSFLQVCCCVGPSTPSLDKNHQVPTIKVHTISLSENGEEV
# Canis familiaris [30] = assay: Toxicity in telemetered dog model assessed as change in ECG measures upto 30 mg/kg; type: organism-based, Canis lupus familiaris; parameters: dose 30 mg/kg; conditions: in vivo
# Cytochrome P450 2C19 = Cytochrome P450 2C19 (Homo sapiens, UniProt P33261); assay: Inhibition of […] in human liver microsomes; type: ADME, Microsome
# Rattus norvegicus [31] = assay: Inhibition of DOI-induced hypolocomotion in rat at 1 mg/kg coadministered with DOI 10 mins prior testing; type: functional, organism-based; parameters: dose 1 mg/kg
# 5-hydroxytryptamine receptor 2A, sequence (P28223 whole entry): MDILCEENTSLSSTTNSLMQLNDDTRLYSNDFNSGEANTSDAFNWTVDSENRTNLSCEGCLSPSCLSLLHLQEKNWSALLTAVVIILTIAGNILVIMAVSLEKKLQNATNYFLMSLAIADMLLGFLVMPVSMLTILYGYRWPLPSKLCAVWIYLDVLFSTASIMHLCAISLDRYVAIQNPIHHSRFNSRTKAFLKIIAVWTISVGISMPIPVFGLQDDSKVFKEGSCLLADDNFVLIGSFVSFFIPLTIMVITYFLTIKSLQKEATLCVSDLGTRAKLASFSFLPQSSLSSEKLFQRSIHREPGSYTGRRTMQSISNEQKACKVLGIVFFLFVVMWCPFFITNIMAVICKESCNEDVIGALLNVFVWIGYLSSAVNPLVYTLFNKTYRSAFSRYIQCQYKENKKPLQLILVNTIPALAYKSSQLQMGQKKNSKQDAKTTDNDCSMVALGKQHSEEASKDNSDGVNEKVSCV
# Cytochrome P450 3A4, sequence (P08684 whole entry): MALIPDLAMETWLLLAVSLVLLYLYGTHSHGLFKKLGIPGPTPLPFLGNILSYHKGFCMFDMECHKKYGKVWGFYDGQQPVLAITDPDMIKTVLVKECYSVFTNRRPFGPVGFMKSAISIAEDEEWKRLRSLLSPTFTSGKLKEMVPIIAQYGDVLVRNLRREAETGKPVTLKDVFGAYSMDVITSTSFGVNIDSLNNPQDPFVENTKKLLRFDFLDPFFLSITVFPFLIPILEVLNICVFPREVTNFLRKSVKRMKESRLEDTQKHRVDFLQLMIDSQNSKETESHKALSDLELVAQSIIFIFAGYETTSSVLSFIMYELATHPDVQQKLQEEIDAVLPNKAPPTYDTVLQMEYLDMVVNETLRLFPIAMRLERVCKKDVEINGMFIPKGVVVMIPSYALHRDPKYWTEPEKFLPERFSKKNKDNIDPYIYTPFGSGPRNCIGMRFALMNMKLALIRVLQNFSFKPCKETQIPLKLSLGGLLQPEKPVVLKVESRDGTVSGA
# D(3) dopamine receptor (Homo sapiens), sequence (P35462 whole entry): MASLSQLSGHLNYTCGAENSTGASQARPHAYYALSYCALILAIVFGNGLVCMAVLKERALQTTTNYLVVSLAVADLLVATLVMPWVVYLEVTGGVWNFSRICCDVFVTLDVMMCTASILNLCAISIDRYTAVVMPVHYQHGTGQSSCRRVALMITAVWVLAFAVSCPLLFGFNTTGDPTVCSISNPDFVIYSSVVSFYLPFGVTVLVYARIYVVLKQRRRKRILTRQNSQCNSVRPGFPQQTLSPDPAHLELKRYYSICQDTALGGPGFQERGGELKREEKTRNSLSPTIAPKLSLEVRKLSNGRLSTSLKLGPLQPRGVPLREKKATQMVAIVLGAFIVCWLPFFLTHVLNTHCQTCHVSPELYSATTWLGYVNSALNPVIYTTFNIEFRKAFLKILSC
# Cytochrome P450 2C19, sequence (P33261 whole entry): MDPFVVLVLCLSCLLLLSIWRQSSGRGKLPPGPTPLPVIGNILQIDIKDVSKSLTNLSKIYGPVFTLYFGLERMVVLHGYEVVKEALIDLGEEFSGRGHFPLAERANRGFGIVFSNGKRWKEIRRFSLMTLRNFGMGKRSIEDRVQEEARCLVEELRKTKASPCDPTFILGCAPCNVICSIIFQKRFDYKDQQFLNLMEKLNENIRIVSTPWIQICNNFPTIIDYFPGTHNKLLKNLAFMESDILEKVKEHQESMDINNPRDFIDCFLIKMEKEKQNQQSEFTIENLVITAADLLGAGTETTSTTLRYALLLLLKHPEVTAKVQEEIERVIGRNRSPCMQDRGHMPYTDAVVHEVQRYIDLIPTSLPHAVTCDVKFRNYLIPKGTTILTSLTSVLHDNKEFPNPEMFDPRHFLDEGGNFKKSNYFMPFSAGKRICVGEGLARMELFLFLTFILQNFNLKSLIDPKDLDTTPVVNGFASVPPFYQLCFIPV
# Cytochrome P450 2C9, sequence (P11712 whole entry): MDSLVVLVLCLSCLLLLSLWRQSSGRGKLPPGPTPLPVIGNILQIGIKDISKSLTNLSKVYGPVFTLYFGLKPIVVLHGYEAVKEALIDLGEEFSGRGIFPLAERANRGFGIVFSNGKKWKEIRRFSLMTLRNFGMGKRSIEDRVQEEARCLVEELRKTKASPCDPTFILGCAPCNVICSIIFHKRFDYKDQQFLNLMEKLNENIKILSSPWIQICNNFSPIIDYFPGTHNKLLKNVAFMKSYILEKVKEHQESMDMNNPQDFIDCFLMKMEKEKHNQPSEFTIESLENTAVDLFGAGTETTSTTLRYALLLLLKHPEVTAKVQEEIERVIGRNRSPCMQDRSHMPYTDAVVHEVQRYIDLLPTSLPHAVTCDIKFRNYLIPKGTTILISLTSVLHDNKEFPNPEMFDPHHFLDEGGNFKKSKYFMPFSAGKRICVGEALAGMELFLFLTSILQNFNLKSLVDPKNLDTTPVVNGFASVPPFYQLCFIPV
# D(2) dopamine receptor (Homo sapiens), sequence (P14416 whole entry): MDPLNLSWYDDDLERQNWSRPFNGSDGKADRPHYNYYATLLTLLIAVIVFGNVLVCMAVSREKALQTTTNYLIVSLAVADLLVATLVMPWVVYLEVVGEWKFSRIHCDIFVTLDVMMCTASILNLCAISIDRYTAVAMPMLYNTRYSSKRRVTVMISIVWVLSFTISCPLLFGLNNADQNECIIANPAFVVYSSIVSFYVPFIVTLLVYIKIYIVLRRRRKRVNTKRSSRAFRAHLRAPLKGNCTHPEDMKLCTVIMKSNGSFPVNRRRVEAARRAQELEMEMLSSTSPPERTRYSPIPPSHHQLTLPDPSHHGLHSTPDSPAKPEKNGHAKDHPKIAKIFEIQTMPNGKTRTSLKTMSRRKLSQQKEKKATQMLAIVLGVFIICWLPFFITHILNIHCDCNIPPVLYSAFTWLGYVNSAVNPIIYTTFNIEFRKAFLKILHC
# D(1A) dopamine receptor (Homo sapiens), sequence (P21728 whole entry): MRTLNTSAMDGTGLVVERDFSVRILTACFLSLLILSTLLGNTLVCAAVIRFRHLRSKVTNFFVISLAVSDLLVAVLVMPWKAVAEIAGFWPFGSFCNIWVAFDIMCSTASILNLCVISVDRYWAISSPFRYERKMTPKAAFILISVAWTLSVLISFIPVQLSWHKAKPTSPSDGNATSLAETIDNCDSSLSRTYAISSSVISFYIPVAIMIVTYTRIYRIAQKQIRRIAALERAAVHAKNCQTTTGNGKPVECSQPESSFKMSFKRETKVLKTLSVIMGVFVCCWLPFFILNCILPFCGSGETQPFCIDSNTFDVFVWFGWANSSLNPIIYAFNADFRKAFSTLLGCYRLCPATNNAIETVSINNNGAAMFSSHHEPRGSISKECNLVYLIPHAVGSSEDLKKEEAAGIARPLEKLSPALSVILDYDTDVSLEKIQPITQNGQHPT
# Cytochrome P450 2D6, sequence (P10635 whole entry): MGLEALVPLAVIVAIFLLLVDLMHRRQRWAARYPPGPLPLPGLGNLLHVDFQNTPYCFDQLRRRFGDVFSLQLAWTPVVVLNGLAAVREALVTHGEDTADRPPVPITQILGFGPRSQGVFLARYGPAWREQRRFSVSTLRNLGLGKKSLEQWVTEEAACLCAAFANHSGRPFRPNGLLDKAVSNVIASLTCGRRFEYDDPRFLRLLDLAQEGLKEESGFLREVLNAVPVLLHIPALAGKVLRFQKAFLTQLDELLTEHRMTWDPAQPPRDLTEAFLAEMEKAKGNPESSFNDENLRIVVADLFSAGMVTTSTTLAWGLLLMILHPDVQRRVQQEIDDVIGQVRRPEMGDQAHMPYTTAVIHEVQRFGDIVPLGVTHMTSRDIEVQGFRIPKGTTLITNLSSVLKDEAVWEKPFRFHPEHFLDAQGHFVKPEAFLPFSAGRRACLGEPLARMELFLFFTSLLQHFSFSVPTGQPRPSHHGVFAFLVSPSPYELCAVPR
# D(1B) dopamine receptor (Homo sapiens), sequence (P21918 whole entry): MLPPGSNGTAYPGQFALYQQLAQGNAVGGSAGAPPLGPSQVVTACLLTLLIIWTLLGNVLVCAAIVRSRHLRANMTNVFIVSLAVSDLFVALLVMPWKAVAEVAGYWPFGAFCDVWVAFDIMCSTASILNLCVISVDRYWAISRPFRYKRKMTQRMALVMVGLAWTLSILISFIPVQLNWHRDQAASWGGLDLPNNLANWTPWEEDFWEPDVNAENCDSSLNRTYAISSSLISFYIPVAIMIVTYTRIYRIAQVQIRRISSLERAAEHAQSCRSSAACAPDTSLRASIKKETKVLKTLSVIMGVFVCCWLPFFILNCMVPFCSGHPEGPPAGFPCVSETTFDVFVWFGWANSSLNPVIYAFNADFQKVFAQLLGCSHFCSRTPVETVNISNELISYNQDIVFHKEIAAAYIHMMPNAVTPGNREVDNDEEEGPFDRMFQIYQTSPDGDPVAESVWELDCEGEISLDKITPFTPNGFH
compound,measurement,setting,value
Cn1cc(Br)c(C(=O)N2CCN(CCc3ccc(F)cc3)CC2)n1,Activity,Rattus norvegicus [1],Active
same,half-life,[2],84 min
same,clearance,Rattus norvegicus [3],9.3 L/h/kg
same,bioavailability,Rattus norvegicus [4],9%
same,concentration at 0.75 h,[5],0.0083 µg/mL
same,Vdss,Rattus norvegicus [6],8.1 L/kg
O=C(c1cnc2ccccn12)N1CCN(CCc2ccc(F)cc2F)CC1,Ki,[7],0.0017 µM
same,Ki,[8],0.739 µM
O=C(c1cnn2c1CCCC2)N1CCN(CCc2ccc(F)cc2F)CC1,Ki,[7],0.018 µM
same,Ki,[8],2.88 µM
O=C(c1cccn2cc(Br)nc12)N1CCN(CCc2ccc(F)cc2F)CC1,Ki,[7],0.0017 µM
same,Ki,[8],0.682 µM
O=C(c1cccn2ccnc12)N1CCN(CCc2ccc(F)cc2F)CC1,Activity,Canis familiaris [9],Non-toxic
same,Activity,Rattus norvegicus [10],Active
same,half-life,[11],16 min
same,half-life,[2],30 min
same,clearance,Rattus norvegicus [3],3.5 L/h/kg
same,Activity,Rattus norvegicus [12],Dose-dependent effect
same,bioavailability,Rattus norvegicus [4],47%
same,concentration at 0.75 h,[13],0.0145 µg/mL
same,Activity,Rattus norvegicus [14],Active
same,IC50,Cytochrome P450 2C9,> 40 µM
same,ED50,Rattus norvegicus [15],0.3 mg/kg
same,IC50,Cytochrome P450 1A2,> 40 µM
same,Activity,[16],< 50%
same,Activity,Rattus norvegicus [17],Dose-dependent effect
same,IC50,Cytochrome P450 2D6,> 40 µM
same,Activity,Rattus norvegicus [18],Dose-dependent effect
same,AUClast,Rattus norvegicus [19],0.44 µg·h/mL
same,Ki,[8],0.524 µM
same,Activity,[20],< 50%
same,Activity,[21],< 50%
same,Cmax,[22],0.943 µg/mL
same,Activity,[23],< 50%
same,Activity,[24],< 50%
same,Kp,[25],1.32
same,IC50,Cytochrome P450 3A4,> 40 µM
same,fraction unbound,[26],0.326
same,concentration at 0.75 h,[27],0.011 µg/mL
same,Activity,[28],< 50%
same,Activity,[29],< 50%
same,Activity,Canis familiaris [30],Non-toxic
same,Vdss,Rattus norvegicus [6],1.7 L/kg
same,IC50,Cytochrome P450 2C19,> 40 µM
O=C(c1cc2ncccn2n1)N1CCN(CCc2ccc(F)cc2F)CC1,Ki,[7],0.0056 µM
same,Ki,[8],1.36 µM
O=C(c1nn2ccccc2c1Br)N1CCN(CCc2ccc(F)cc2F)CC1,Ki,[7],0.0008 µM
same,Ki,[8],0.496 µM
O=C(c1nc2ccccn2c1Br)N1CCN(CCc2ccc(F)cc2F)CC1,Ki,[7],0.0019 µM
same,Ki,[8],0.581 µM
O=C(c1nn2ccccc2c1Cl)N1CCN(CCc2ccc(F)cc2F)CC1,Ki,[7],0.0006 µM
same,Ki,[8],0.394 µM
O=C(c1cc(Br)cn2ccnc12)N1CCN(CCc2ccc(F)cc2F)CC1,Ki,[7],0.005 µM
same,Ki,[8],0.474 µM
Cn1cc(Br)c(C(=O)N2CCN(CC(=O)c3ccc(F)cc3)CC2)n1,Activity,Rattus norvegicus [31],Active
O=C(c1cnn2cc(Cl)ccc12)N1CCN(CCc2ccc(F)cc2F)CC1,Ki,[7],0.0059 µM
same,Ki,[8],0.575 µM
